Patent publication US20190127381A1, “SUBSTITUTED FUSED PYRIMIDINONE COMPOUNDS” (TORRENT PHARMACEUTICALS LIMITED, priority 2016, published 2019)

Experiments:
[1] = biological target: T1, purified recombinant human PI3K enzyme γ (Homo sapiens, UniProt P48736); assay: Inhibition of PI3-Kinase enzymatic activity (HTRF enzyme assay), γ; assay type: biochemical; conditions: 1 μM compound; PI3K γ 100 ng/well; PIP2 10 μM; ATP 50 μM; read-out: Percentage inhibition of PI3K activity, γ
T1 construct: purchased Invitrogen, USA
T1 sequence (P48736 whole entry): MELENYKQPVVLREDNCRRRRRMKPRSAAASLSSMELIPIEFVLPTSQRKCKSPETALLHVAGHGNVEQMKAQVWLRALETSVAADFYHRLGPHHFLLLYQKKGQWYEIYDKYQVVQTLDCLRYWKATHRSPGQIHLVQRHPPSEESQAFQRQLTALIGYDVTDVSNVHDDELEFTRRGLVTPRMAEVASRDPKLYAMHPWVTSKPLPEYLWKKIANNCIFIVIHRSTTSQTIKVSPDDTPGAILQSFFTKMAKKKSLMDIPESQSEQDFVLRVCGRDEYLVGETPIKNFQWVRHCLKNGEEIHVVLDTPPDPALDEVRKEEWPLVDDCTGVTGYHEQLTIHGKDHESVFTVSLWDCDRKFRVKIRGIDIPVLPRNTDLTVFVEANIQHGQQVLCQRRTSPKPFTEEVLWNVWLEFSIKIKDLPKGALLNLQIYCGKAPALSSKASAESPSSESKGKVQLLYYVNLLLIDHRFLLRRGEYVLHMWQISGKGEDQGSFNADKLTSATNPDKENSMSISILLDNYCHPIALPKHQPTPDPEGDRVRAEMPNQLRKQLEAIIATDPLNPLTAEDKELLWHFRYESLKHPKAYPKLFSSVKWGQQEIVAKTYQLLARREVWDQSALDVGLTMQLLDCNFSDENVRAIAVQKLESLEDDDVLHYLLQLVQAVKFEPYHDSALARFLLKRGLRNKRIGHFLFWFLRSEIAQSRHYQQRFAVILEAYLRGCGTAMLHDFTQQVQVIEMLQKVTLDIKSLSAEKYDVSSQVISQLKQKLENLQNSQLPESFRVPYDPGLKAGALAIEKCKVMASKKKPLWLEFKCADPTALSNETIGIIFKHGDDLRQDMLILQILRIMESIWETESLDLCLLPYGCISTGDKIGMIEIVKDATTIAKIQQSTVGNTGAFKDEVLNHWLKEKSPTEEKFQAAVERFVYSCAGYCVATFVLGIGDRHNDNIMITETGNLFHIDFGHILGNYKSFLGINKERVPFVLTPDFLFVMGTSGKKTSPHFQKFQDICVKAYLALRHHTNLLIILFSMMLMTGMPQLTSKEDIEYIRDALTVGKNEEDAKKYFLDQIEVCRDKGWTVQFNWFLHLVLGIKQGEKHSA
In short: (§1)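 HTRF assay with compound at 1 μM (1.0% DMSO), recombinant human PI3Kδ (50 ng/well) or γ (100 ng/well) and PIP2 (10 μM), preincubated 15 min at room temperature. ATP (δ 200 μM, γ 50 μM) was then added for 30 min at room temperature. Percent inhibition was derived from the 665/615 nm signal ratio.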

[2] = system: OVA induced pulmonary inflammatory cell accumulation in BAL fluid; assay: Ovalbumin (OVA) model of airway inflammation (asthma) in mice; assay type: in vivo; conditions: OVA challenge
Method: Allergen chicken egg ovalbumin (OVA) model, which shares features similar to human allergic asthma, including the presence of eosinophilic and lymphocytic lung inflammation, is frequently used for model for asthma. Ovalbumin is an inert protein that is not intrinsically immunogenic and therefore needs to be injected systemically in the presence of an adjuvant, typically aluminum hydroxide (alum), to induce Th2-driven response in mice (Curr. Protoc. Mouse Biol. 6:169-184, 2016).
Ovalbumin (20 μg) (OVA, Sigma Aldrich, St. Louis, Mo.), emulsified with inject alum (1 mg, 0.2 mL) was administered in mice intraperitoneally (i.p.) on days 1 and 14 for sensitization, and then challenged with OVA (0.5% w/v) exposure for 30 minutess using nebulizer on days 21, 22 and 23 in Compound no 44 treated and vehicle control animals. Saline control mice received normal saline as sensitization and challenge dose in similar fashion.
Lung delivery of compound of present invention was achieved by whole body aerosol exposure using nebulizer for 25 minutes in a chamber. Mice were divided in different dose groups and exposed in a chamber for 25 minutes with vehicle or Compound no 44 (1 mg/ml or 3 mg/ml). Test compound/vehicle was administered once daily for 5 days starting from day 20 till day 24. On each challenge day treatment was administered 2 hr before OVA challenge. Bronchoalveolar lavage (BAL) was performed 48 hr post last OVA exposure (i.e. on day 25).
Trachea of animal was cannulated using catheter. Phosphate Buffer Saline (PBS) was used as lavage fluid. A volume of 0.5 ml was gently instilled and withdrawn and collected in microcentrifuge tube placed on ice. This procedure was repeated further 3 times.
(§2) Lavage fluid was separated from cells by centrifugation and supernatant separated. The cell pallet was resuspended in known volume of PBS. Cells in aliquot were stained using Turk solution and total cell numbers were calculated by counting Turk stained aliquot under microscope using haemocytometer.
The residual cell suspension was resuspended with PBS and slides prepared using cyto centrifuge technique (Cytospin 4, Thermo Shandon). The slides were then fixed with methanol, air dried and stained with May Grunwald Giemsa stain. Up to 300 cells were counted and differentiated using standard morphometric techniques under light microscopy.
All results are presented at individual data for each animal and mean value calculated for each group. Percentage inhibition for each cell type is calculated as below.
% inhibition=[(Vehicle treatment−Drug treatment)/(Vehicle treatment−Saline treatment)]*100

[3] = biological target: T2, purified recombinant human PI3K enzyme δ (Homo sapiens, UniProt O00329); assay: Inhibition of PI3-Kinase enzymatic activity (HTRF enzyme assay), δ; assay type: biochemical; conditions: 1 μM compound; PI3K δ 50 ng/well; PIP2 10 μM; ATP 200 μM; read-out: Percentage inhibition of PI3K activity, δ
T2 construct: purchased Invitrogen, USA
T2 sequence (O00329 whole entry): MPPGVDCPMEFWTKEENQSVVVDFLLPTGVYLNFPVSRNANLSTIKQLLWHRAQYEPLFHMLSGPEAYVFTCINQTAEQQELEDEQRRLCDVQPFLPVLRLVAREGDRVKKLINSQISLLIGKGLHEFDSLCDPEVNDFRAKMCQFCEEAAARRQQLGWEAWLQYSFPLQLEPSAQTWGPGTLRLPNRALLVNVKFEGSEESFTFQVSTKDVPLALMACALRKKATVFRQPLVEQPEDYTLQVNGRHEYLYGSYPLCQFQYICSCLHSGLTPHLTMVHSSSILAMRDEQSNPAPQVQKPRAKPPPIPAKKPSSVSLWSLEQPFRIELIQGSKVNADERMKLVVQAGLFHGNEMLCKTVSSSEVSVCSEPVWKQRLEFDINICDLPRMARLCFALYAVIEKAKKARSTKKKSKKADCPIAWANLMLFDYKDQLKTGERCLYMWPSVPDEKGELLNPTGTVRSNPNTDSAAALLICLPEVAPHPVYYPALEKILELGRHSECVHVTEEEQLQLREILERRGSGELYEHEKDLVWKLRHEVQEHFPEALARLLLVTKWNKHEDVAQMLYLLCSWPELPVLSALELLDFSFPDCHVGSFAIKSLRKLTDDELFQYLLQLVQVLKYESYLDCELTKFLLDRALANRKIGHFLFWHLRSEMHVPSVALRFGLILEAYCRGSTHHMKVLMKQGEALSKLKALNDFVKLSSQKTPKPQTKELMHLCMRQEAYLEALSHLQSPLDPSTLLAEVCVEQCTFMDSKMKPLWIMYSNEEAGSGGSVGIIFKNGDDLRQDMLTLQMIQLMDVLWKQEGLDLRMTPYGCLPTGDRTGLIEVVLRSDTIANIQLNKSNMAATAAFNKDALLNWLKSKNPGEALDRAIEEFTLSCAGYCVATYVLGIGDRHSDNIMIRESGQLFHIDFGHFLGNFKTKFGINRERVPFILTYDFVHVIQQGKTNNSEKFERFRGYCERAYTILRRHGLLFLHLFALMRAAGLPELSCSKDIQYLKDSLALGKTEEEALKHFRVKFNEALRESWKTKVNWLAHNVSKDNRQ
T2 sequence (P27986 whole entry partner): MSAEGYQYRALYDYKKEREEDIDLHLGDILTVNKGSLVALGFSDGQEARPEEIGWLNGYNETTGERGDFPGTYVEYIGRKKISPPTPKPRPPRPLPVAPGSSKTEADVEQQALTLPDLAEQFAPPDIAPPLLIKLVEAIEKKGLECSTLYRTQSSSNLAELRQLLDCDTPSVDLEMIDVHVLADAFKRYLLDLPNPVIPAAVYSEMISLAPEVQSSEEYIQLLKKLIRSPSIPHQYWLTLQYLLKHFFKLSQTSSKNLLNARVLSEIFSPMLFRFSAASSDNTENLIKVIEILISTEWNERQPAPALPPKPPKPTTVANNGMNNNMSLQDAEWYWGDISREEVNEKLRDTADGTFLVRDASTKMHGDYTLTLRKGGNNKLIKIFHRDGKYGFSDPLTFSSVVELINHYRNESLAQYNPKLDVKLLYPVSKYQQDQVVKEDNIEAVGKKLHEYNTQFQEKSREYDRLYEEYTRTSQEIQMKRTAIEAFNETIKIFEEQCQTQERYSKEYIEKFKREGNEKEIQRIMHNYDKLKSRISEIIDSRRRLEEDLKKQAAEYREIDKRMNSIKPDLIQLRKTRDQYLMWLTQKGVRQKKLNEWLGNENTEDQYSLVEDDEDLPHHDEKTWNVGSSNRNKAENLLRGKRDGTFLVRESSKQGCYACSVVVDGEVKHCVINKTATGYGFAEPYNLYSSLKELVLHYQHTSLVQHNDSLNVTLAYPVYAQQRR
In short: as §1

[4] = system: cigarette smoke induced Neutrophil accumulation in BAL Fluid; assay: Acute guinea pig model of airway inflammation (tobacco smoke, COPD); assay type: in vivo; conditions: for % Inhibition of neutrophil against vehicle group: exposure 56 minutes; for Neutrophil (*10^6 cells/animal) in BAL fluid: whole body aerosol exposure 56 minutes, day 6 to day 11, Mean ± SEM
Text: The tobacco smoke induced airway inflammation model is used for in vivo efficacy of compound. Many investigators have used acute tobacco smoke (TS) exposure in rodents as models of airway inflammation for quick screening of anti-inflammatory therapies for COPD (J Pharmacol Exp Ther. 2008; 324(3):921-9; J Pharmacol Exp Ther. 2010; 332(3):764-75; Journal of Inflammation 2013, 10(Suppl 1):31 and Eur Respir J Suppl 2006; 663s:3850). Given its position as predominant cause of COPD, animal models using TS exposure would appear to be the logical choice for investigation (Respir Res. 2004; 2;5:18).
Guinea pigs were exposed to tobacco smoke (TS) in an acrylic chamber. Animals were exposed to TS from 5, 10, 15 cigarettes on day 1, day 2, day 3 respectively. From day 4 onwards till day 11, animals were exposed to TS from 15 cigarettes per day. On 11 days of exposure of guinea pig to TS, significant inflammatory cell recruitment, predominantly neutrophils, to lungs was observed as compared to air exposed control guinea pig (BALF neutrophil levels, 0.59±0.15*10^6 cells/animal in air control group vs 8.3±1.4*10^6cells/animal in smoke exposed vehicle group)
Lung delivery of test compound was achieved by whole body aerosol exposure using nebulizer for 56 minutes in a chamber. Guinea pig were divided in different dose groups and exposed in a chamber for 56 minutes with vehicle or Compound No. 39 (1 mg/ml or 3 mg/ml). A total quantity of 6.0 ml of either vehicle or test compound formulation was nebulized in chambers to respective groups over 56 mins period. Test compound was administered 2 hr prior to TS exposure from day 6 to day 11. Bronchoalveolar lavage (BAL) was performed 24 hr post last TS exposure.
Trachea of animal was cannulated using catheter. Phosphate Buffer Saline (PBS) was used as lavage fluid. A volume of 5.0 ml was gently instilled and withdrawn and collected in microcentrifuge tube placed on ice. This procedure was repeated further 5 times.
as §2
The residual cell suspension was resuspended and slides prepared using cyto centrifuge technique (Cytospin 4, Thermo Shandon). […] Up to 300 cells were counted and differentiated using standard morphometric techniques under light microscopy.
All results are presented at individual data for each animal and mean value calculated for each group. Percentage inhibition for the neutrophil was calculated for Compound No 39 treatment group against vehicle group.

[5] = 1 mg/ml nebulized 25 minutes once daily for 5 days
[6] = 3 mg/ml nebulized 25 minutes once daily for 5 days

Row | Structure (SMILES) | inhibition at 1 µM [1] [%] | inhibition at 1 µM [3] [%] | other results
1 | Cn1cc(-c2cccc3nc(Cn4nc(-c5ccc(O)c6c5CC(C)(C)O6)c5c(N)ncnc54)n(-n4cccc4)c(=O)c23)cn1 [Compound No. 44, 2-{[4-amino-3-(7-hydroxy-2,2-dimethyl-2,3-dihydro-1-benzofuran-4-yl)-1H-pyrazolo[3,4-d]pyrimidin-1-yl]methyl}-5-(1-methyl-1H-pyrazol-4-yl)-3-(1H-pyrrol-1-yl)quinazolin-4(3H)-one] | 80 to 100 | 80 to 100 | reduced eosinophil influx (% inhibition) in BAL fluid [2, 5]: 42%; reduced lymphocyte influx (% inhibition) in BAL fluid [2, 5]: 27%; reduced eosinophil influx (% inhibition) in BAL fluid [2, 6]: 56%; reduced lymphocyte influx (% inhibition) in BAL fluid [2, 6]: 39%
2 | Cc1cccc2nc(Cn3nc(-c4ccc(O)c5c4CC(C)(C)O5)c4c(N)ncnc43)n(-n3c(C)ccc3C)c(=O)c12 [Compound No. 39, 2-{[4-amino-3-(7-hydroxy-2,2-dimethyl-2,3-dihydro-1-benzofuran-4-yl)-1H-pyrazolo[3,4-d]pyrimidin-1-yl]methyl}-3-(2,5-dimethyl-1H-pyrrol-1-yl)-5-methylquinazolin-4(3H)-one] | 80 to 100 | 80 to 100 | % Inhibition of neutrophil against vehicle group ([4]; 1 mg/ml nebulized): 22%; Neutrophil (*10^6 cells/animal) in BAL fluid ([4]; 1 mg/ml nebulized): 6.5 ± 3.2 *10^6 cells/animal; % Inhibition of neutrophil against vehicle group ([4]; 3 mg/ml nebulized): 68%; Neutrophil (*10^6 cells/animal) in BAL fluid ([4]; 3 mg/ml nebulized): 2.7 ± 1.4 *10^6 cells/animal
3 | CC1(C)Cc2c(-c3nn(Cc4nc5cccc(-c6ccoc6)c5c(=O)n4-n4cccc4)c4ncnc(N)c34)ccc(O)c2O1 [compound 23, 2-{[4-amino-3-(7-hydroxy-2,2-dimethyl-2,3-dihydro-1-benzofuran-4-yl)-1H-pyrazolo[3,4-d]pyrimidin-1-yl]methyl}-5-(furan-3-yl)-3-(1H-pyrrol-1-yl)quinazolin-4(3H)-one] | 80 to 100 | 80 to 100 | –
4 | Nc1ncnc2c1c(-c1ccc(O)c3c1CCC3)nn2Cc1nc2cccc(Cl)c2c(=O)n1-n1cccc1 [compound 1, 2-{[4-amino-3-(7-hydroxy-2,3-dihydro-1H-inden-4-yl)-1H-pyrazolo[3,4-d]pyrimidin-1-yl]methyl}-5-chloro-3-(1H-pyrrol-1-yl)quinazolin-4(3H)-one] | 80 to 100 | 80 to 100 | –
5 | CC1(C)Cc2c(-c3nn(Cc4nc5cccc(Br)c5c(=O)n4C4(c5ccccc5)CC4)c4ncnc(N)c34)ccc(O)c2O1 [compound 13, 2-{[4-amino-3-(7-hydroxy-2,2-dimethyl-2,3-dihydro-1-benzofuran-4-yl)-1H-pyrazolo[3,4-d]pyrimidin-1-yl]methyl}-5-bromo-3-(1-phenylcyclopropyl)quinazolin-4(3H)-one] | 80 to 100 | 80 to 100 | –

Continued, in another order:

Row | inhibition at 1 µM [1] [%] | inhibition at 1 µM [3] [%] | Structure (SMILES) | other results
6 | 80 to 100 | 80 to 100 | CC1(C)Cc2c(-c3nn(Cc4nc5cccc(C#CC6CC6)c5c(=O)n4-n4cccc4)c4ncnc(N)c34)ccc(O)c2O1 [compound 48, 2-{[4-amino-3-(7-hydroxy-2,2-dimethyl-2,3-dihydro-1-benzofuran-4-yl)-1H-pyrazolo[3,4-d]pyrimidin-1-yl]methyl}-5-(cyclopropylethynyl)-3-(1H-pyrrol-1-yl)quinazolin-4(3H)-one] | –
7 | 80 to 100 | 80 to 100 | CC1(C)Cc2c(-c3nn(Cc4nc5cccc(C#CCN6CCNC(=O)C6)c5c(=O)n4-n4cccc4)c4ncnc(N)c34)ccc(O)c2O1 [compound 58, 2-{[4-amino-3-(7-hydroxy-2,2-dimethyl-2,3-dihydro-1-benzofuran-4-yl)-1H-pyrazolo[3,4-d]pyrimidin-1-yl]methyl}-5-[3-(3-oxopiperazin-1-yl)prop-1-yn-1-yl]-3-(1H-pyrrol-1-yl)quinazolin-4(3H)-one] | –
8 | 60 to 80 | 80 to 100 | Cc1cccc(C2(n3c(Cn4nc(-c5ccc(O)c6c5CC(C)(C)O6)c5c(N)ncnc54)nc4cccc(C#CCO)c4c3=O)CC2)c1 [compound 31, 2-{[4-amino-3-(7-hydroxy-2,2-dimethyl-2,3-dihydro-1-benzofuran-4-yl)-1H-pyrazolo[3,4-d]pyrimidin-1-yl]methyl}-5-(3-hydroxyprop-1-yn-1-yl)-3-[1-(3-methylphenyl)cyclopropyl]quinazolin-4(3H)-one] | –
9 | 80 to 100 | 80 to 100 | CC1(C)Cc2c(-c3nn(Cc4nc5cccc(C#CCO)c5c(=O)n4C4(c5ccccc5)CC4)c4ncnc(N)c34)ccc(O)c2O1 [compound 24, 2-{[4-amino-3-(7-hydroxy-2,2-dimethyl-2,3-dihydro-1-benzofuran-4-yl)-1H-pyrazolo[3,4-d]pyrimidin-1-yl]methyl}-5-(3-hydroxyprop-1-yn-1-yl)-3-(1-phenylcyclopropyl)quinazolin-4(3H)-one] | –
10 | 60 to 80 | 80 to 100 | CCn1cc(-c2cccc3nc(Cn4nc(-c5ccc(O)c6c5CC(C)(C)O6)c5c(N)ncnc54)n(-n4cccc4)c(=O)c23)cn1 [compound 45, 2-{[4-amino-3-(7-hydroxy-2,2-dimethyl-2,3-dihydro-1-benzofuran-4-yl)-1H-pyrazolo[3,4-d]pyrimidin-1-yl]methyl}-5-(1-ethyl-1H-pyrazol-4-yl)-3-(1H-pyrrol-1-yl)quinazolin-4(3H)-one] | –
